Patent US20130059850A1, “AZA-INDOLE DERIVATIVES USEFUL AS MODULATORS OF FAAH” (MERCK SHARP & DOHME CORP., priority 2010, published 2013)

How the values were obtained:
[1] = target: T1, human FAAH (Fatty Acid Amide Hydrolase) (Homo sapiens, UniProt O00519); experiment: FAAH enzyme assay on CHO cell lysate expressing human FAAH (human LY), AAMCA fluorescent substrate; format: biochemical; settings: human FAAH_CHO cell lysate
T1 construct: The full length FAAH was subcloned into the mammalian expression vector, pcDEF.neo, using XbaI and EcoRI restriction sites; expressed in transfected cells
T1 sequence (O00519 1-579): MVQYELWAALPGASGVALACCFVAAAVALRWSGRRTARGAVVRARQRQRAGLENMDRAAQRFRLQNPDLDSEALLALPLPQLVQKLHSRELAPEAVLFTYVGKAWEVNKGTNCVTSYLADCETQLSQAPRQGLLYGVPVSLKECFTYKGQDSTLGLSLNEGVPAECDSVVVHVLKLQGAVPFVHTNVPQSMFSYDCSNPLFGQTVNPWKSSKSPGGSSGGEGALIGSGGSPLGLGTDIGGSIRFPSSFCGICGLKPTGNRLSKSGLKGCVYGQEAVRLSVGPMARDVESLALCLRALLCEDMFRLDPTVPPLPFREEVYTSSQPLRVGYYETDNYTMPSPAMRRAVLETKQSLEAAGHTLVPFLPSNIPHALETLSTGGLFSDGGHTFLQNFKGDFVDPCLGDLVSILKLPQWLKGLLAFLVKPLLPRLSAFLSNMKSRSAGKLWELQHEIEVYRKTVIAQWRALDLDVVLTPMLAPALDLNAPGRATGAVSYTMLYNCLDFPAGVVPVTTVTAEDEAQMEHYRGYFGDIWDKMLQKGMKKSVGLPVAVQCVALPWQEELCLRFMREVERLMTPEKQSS
In short: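 CHO cell lysate expressing full-length human FAAH, preincubated with compound 15 min at 22-25° C. in pH 8.0 phosphate buffer with 200 mM KCl and 0.1% fatty-acid-free BSA. 1 μM AAMCA final, 1-3 h at room temperature; 7-amino-4-methylcoumarin release read by fluorescence (Ex 360, Em 460 nm).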

[2] = target: T1, human FAAH (Fatty Acid Amide Hydrolase); experiment: FAAH whole cell assay on CHO cells expressing human FAAH (human WC), AAMCA fluorescent substrate; format: cell-based; settings: human FAAH_CHO whole cell
In short: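 CHO cells stably expressing full-length human FAAH, harvested with enzyme-free dissociation and resuspended at 4×10^4 cells/assay (96-well) or 1×10^4 (384-well) in 50 mM phosphate pH 8.0, 1 mM EDTA, 200 mM KCl, 0.2% glycerol, 0.1% BSA.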

Row | SMILES | IC50 [1] [nM] | IC50 [2] [µM]
1 | COc1ccc(C(O)c2[nH]c3ncccc3c2Sc2ccc(Cl)cc2)cc1 (stereo not drawn) [Example J10] | 818 | 8.41
2 | CC(C)C(O)c1[nH]c2ncccc2c1Sc1ccc(Cl)cc1 (stereo not drawn) [Example J11] | 695 | 5.89
3 | CC1(C)CC(NCc2[nH]c3ncccc3c2Sc2ccc(Cl)cc2)CC(C)(C)O1 [Example J12] | 59 | 0.202
